In patent US5665760A, “Lyophilized thioxanthenone antitumor agents” (priority 1995, dated 1997):

Tests used:
Assay type in all cases: in vivo
Colon 51/A = assay: antitumor activity in mice against Colon 51/A; settings: i.v. bolus days 3-6, 9, 11
Method: (§1) Representative examples of the invention were tested for antitumor activity in mice according to the following procedure:
(§2) The animals were pooled, implanted subcutaneously with 30 to 60 mg tumor fragments by 12-gauge trocar, and again pooled before unselective distribution to the various treatment and control groups. For early-stage treatment, chemotherapy was started within 1 to 5 days after tumor implantation while the number of cells was relatively small (10^7 to 10^8 cells). For advanced-stage treatment, chemotherapy was delayed until the tumor became relatively large (200 to 300 mg in size). A 300-mg tumor contains approximately 3×10^8 total cells. […] Tumors were measured with a caliper weekly (or twice weekly for the more rapidly growing tumors). Mice were sacrificed when their tumors reached 1500 mg (i.e., before they can cause the animal discomfort). Tumor weights were estimated from two-dimensional measurements.
(§3) The treatment and control groups were measured when the control group tumors reached approximately 700 to 1200 mg in size (Median of Group). The median tumor weight of each group was determined (including zeros). […] A T/C value <10% is considered to indicate highly significant antitumor activity.

Mammary 16/C = assay: antitumor activity in mice against Mammary 16/C; settings: for Tumor Free: 23 days of observation
Method: as §1, §2, §3

Panc 02 = assay: antitumor activity in mice against Panc 02; settings: i.v. bolus days 1-4; for Tumor Free: 28 days of observation
Method: as §1
(§4) The animals were pooled, implanted subcutaneously with 30 to 60 mg tumor fragments by 12-gauge trocar, and again pooled before unselective distribution to the various treatment and control groups. For early-stage treatment, chemotherapy was started within 1 to 5 days after tumor implantation while the number of cells was relatively small (10^7 to 10^8 cells). For advanced-stage treatment, chemotherapy was delayed until the tumor became relatively large (200 to 300 mg in size). A 300-mg tumor contains approximately 3×10^8 total cells. Tumors within a given advanced-stage trial were within a 2.5-fold size range for 90% of the animals. Tumors were measured with a caliper weekly (or twice weekly for the more rapidly growing tumors). Mice were sacrificed when their tumors reached 1500 mg (i.e., before they can cause the animal discomfort). Tumor weights were estimated from two-dimensional measurements.
(§5) The treatment and control groups were measured when the control group tumors reached approximately 700 to 1200 mg in size (Median of Group). The median tumor weight of each group was determined (including zeros). The T/C value (weight of treated tumors over the weight of control tumors) in percent is an indication of antitumor effectiveness: A T/C equal to or less than 42% is considered significant antitumor activity by the Drug Evaluation Branch of the Division of Cancer Treatment (NCl). A T/C value <10% is considered to indicate highly significant antitumor activity. A body weight loss nadir (mean of group) of greater than 20% or greater than 20% drug-deaths is considered to indicate an excessively toxic dosage.

[1] = test system: pancreatic ductal adenocarcinoma #03; assay: antitumor activity in mice against pancreatic ductal adenocarcinoma #03 (Panc 03); settings: for Tumor Free: 245 days of observation
Method: as §1, §2, §3
(§6) The results are shown in Table I for pancreatic ductal adenocarcinoma #03 and in Table 2 for colon adenocarcinoma #38.

colon adenocarcinoma #38 = assay: antitumor activity in mice against colon adenocarcinoma #38
Method: as §1, §2, §3, §6

[2] = test system: P388/adriamycin resistant leukemia; assay: P388/adriamycin resistant leukemia, cells implanted i.v.
[3] = test system: Mammary Adenocarcinoma 16/C/RP; assay: antitumor activity in mice against Mammary Adenocarcinoma 16/C/RP
Method: as §1, §4, §5

Human MX-1 Mammary = assay: antitumor activity in mice against Human MX-1 Mammary; settings: i.v. days 1-6 (some changed to p.o.)
Method: as §1, §4, §5

[4] = 51 mg/kg total, i.v. bolus days 1-4
[5] = 82 mg/kg total, i.v. bolus days 1-4
[6] = 79 mg/kg total, i.v. bolus days 3-4, 6-14
[7] = 124 mg/kg total, i.v. bolus days 3-4, 6-14
[8] = Table 1, average body weight 25 g, total doses as in E1
[9] = 51 mg/kg total, i.v. bolus days 6-9
[10] = 82 mg/kg total, i.v. bolus days 6-9
[11] = Table 2, i.v., total dose mg/kg by Example: 6:82, 16(a):690, 18(e):120
[12] = 10^6 cells, 280 mg/kg total, i.v. 3 hour infusion day 1
[13] = 10^6 cells, 450 mg/kg total, i.v. 3 hour infusion day 1
[14] = 400 mg/kg total, i.v. infusion days 1, 4
[15] = 600 mg/kg total, i.v. infusion days 1, 4
[16] = 900 mg/kg total, i.v. infusion days 1, 4
[17] = 10^6 cells, 112 mg/kg total, i.v.→p.o. days 1, 4
[18] = 10^6 cells, 248 mg/kg total, i.v.→p.o. days 1, 4
[19] = 161 mg/kg total, i.v. days 1-4 (some changed to p.o.)
[20] = 242 mg/kg total, i.v. days 1-4 (some changed to p.o.)
[21] = 363 mg/kg total, i.v. days 1-4 (some changed to p.o.)
[22] = 155 mg/kg total, i.v. days 3-6 (some changed to p.o.)
[23] = 240 mg/kg total, i.v. days 3-6 (some changed to p.o.)
[24] = 420 mg/kg total, i.v. days 3-6 (some changed to p.o.)
[25] = 147 mg/kg total, i.v. days 3-7 (some changed to p.o.)
[26] = 220 mg/kg total, i.v. days 3-7 (some changed to p.o.)
[27] = 330 mg/kg total, i.v. days 3-7 (some changed to p.o.)

In the case of `CCN(CC)CCNc1ccc(CNS(C)(=O)=O)c2sc3ccccc3c(=O)c12` [Example 6, N-[[1-[[2-(Diethylamino)ethyl]amino]-9-oxothioxanthen4-yl]methyl]methanesulfonamide], the “T/C Value” (Colon 51/A; 66 mg/kg total) is reported as 28%, the “Wt. Loss at Nadir” value (Colon 51/A; 66 mg/kg total) is reported as -2.3 g/mouse and the “T/C Value” (Colon 51/A; 96 mg/kg total) is reported as 14%. For the same compound, the “Wt. Loss at Nadir” value (Colon 51/A; 96 mg/kg total) was -3.0 g/mouse, the “T/C Value” (Mammary 16/C; [4]) was 13% and the “Wt. Loss at Nadir” value (Mammary 16/C; [4]) was -1.2 g/mouse. The “Tumor Free” value (Mammary 16/C; [4]) was 0/5, the “T/C Value” (Mammary 16/C; [5]) was 6% and the “Wt. Loss at Nadir” value (Mammary 16/C; [5]) was -3.0 g/mouse. The “Tumor Free” value (Mammary 16/C; [5]) was 0/5, the “T/C Value” (Panc 02; 51 mg/kg total) was 42% and the “Wt. Loss at Nadir” value (Panc 02; 51 mg/kg total) was -1.2 g/mouse. For the same compound, the “Tumor Free” value (Panc 02; 51 mg/kg total) was 0/5, the “T/C Value” (Panc 02; 82 mg/kg total) was 23% and the “Wt. Loss at Nadir” value (Panc 02; 82 mg/kg total) was -2.0 g/mouse. The “Tumor Free” value (Panc 02; 82 mg/kg total) was 0/5, the “T/C Value” [1, 6] was 0% and the “Wt. Loss at Nadir” value [1, 6] was -1.0 g/mouse. For the same compound, the “Tumor Free” value [1, 6] was 1/5, the “T/C Value” [1, 7] was 0% and the “Wt. Loss at Nadir” value [1, 7] was -1.6 g/mouse. The “Tumor Free” value [1, 7] was 3/5, the “Weight Loss” value [1, 8] was 1.6 g and the “Drug Deaths” value ([1]; Table 1, total doses as in E1) was 0. The “T/C Value” (colon adenocarcinoma #38; [9]) was 18%, the “Wt. Loss at Nadir” value (colon adenocarcinoma #38; [9]) was -1.2 g/mouse and the “T/C Value” (colon adenocarcinoma #38; [10]) was 1%. For the same compound, the “Wt. Loss at Nadir” value (colon adenocarcinoma #38; [10]) was -1.7 g/mouse, the “Drug Deaths” value (colon adenocarcinoma #38; Table 2, i.v., total dose mg/kg by Example: 2:600, 5:960, 6:132, 7:840, 16(a):1000, 18(e):180) was 3/7 and the “Drug Deaths” value (colon adenocarcinoma #38; [11]) was 1/7. For the same compound, the “Weight Loss” value (colon adenocarcinoma #38; [11]) was 1.7 g and the “Weight Loss” value (colon adenocarcinoma #38; mouse, in vivo, iv) was 5.0 g.

For `CCN(CC)CCNc1ccc(CNC)c2sc3ccc(OC)cc3c(=O)c12` [Example 30(h), 1-[[2-(Diethylamino)ethyl]amino]-4-[(methylamino)methyl]-7-methoxy-thioxanthen-9-one], the “Drug Deaths” value [2, 12] was 0/7, the “Wt. Loss at Nadir” value [2, 12] was -1.7 g/mouse and the “Drug Deaths” value [2, 13] was 0/7. The “Wt. Loss at Nadir” value [2, 13] was -2.3 g/mouse, the “% ILS (percentage increase in lifespan)” value ([2]; iv, 280 mg/kg) was 69% and the “Log10 Tumor cell kill” value ([2]; iv, 280 mg/kg) was 6.0. For the same compound, the “Tumor Cell” value ([2]; iv, 280 mg/kg) was 2/7, the “% ILS (percentage increase in lifespan)” value ([2]; iv, 450 mg/kg) was 62% and the “Log10 Tumor cell kill” value ([2]; iv, 450 mg/kg) was 5.3. For the same compound, the “Tumor Cell” value ([2]; iv, 450 mg/kg) was 0/7, the “Drug Deaths” value [3, 14] was 0/5 and the “T/C Value” [3, 14] was 46%. For the same compound, the “Wt. Loss at Nadir” value [3, 14] was -1.0 g/mouse, the “Drug Deaths” value [3, 15] was 0/5 and the “T/C Value” [3, 15] was 23%. The “Wt. Loss at Nadir” value [3, 15] was -0.7 g/mouse, the “Drug Deaths” value [3, 16] was 1/6 and the “T/C Value” [3, 16] was 29%. For the same compound, the “Wt. Loss at Nadir” value [3, 16] was 0 g/mouse, the T/C [1] was 0% and the “Weight Loss” value [1, 8] was 1.4 g. For the same compound, the “Drug Deaths” value ([1]; Table 1, total doses as in E1) was 0.

`CCN(CC)CCNc1ccc(CNS(C)(=O)=O)c2sc3ccc(OC)cc3c(=O)c12` [31(c)] was tested, and the “% ILS (percentage increase in lifespan)” value [2, 17] was 0%, the “Log10 Tumor cell kill” value [2, 17] was 0 and the “Wt. Loss at Nadir” value [2, 17] was -2.7 g/mouse. For the same compound, the “% ILS (percentage increase in lifespan)” value [2, 18] was 0%, the “Log10 Tumor cell kill” value [2, 18] was 0 and the “Wt. Loss at Nadir” value [2, 18] was -3.0 g/mouse. The “Drug Deaths” value ([2]; mouse, in vivo, 112 mg/kg) was 0/6, the “Drug Deaths” value ([2]; mouse, in vivo, 248 mg/kg) was 1/6 and the “T/C Value” ([3]; 109.6 mg/kg total, i.v. 2X/day, days 3-6) was 6%. For the same compound, the “T/C Value” ([3]; 156.8 mg/kg total, i.v. 2X/day, days 3-6) was 5%, the “T/C Value” ([3]; 224 mg/kg total, i.v. 2X/day, days 3-6) was 0% and the “Drug Deaths” value ([3]; mouse, in vivo) was 0. For the same compound, the T/C [1] was 0%, the “Drug Deaths” value ([1]; Table 1, total doses as in E1) was 0 and the “Weight Loss” value ([1]; mouse, in vivo) was 5.6 g.

`CCN(CC)CCNc1ccc(CNC(=O)OC)c2sc3ccc(OC)cc3c(=O)c12` [Example 36] was tested, and the “Drug Deaths” value (Mammary 16/C; [19]) was 0, the “T/C Value” (Mammary 16/C; [19]) was 9% and the “Wt. Loss at Nadir” value (Mammary 16/C; [19]) was -0.4 g/mouse. The “Drug Deaths” value (Mammary 16/C; [20]) was 1/5, the “T/C Value” (Mammary 16/C; [20]) was 8% and the “Wt. Loss at Nadir” value (Mammary 16/C; [20]) was -1.2 g/mouse. The “Drug Deaths” value (Mammary 16/C; [21]) was 2/5, the “T/C Value” (Mammary 16/C; [21]) was 2% and the “Wt. Loss at Nadir” value (Mammary 16/C; [21]) was -2.4 g/mouse. For the same compound, the “Drug Deaths” value [1, 22] was 0, the “T/C Value” [1, 22] was 0% and the “Wt. Loss at Nadir” value [1, 22] was -0.4 g/mouse. The “Drug Deaths” value [1, 23] was 0, the “T/C Value” [1, 23] was 0% and the “Wt. Loss at Nadir” value [1, 23] was -0.4 g/mouse. The “Drug Deaths” value [1, 24] was 3/5, the “T/C Value” [1, 24] was 0% and the “Wt. Loss at Nadir” value [1, 24] was -5.6 g/mouse. For the same compound, the “Weight Loss” value [1, 8] was 0.4 g, the “Drug Deaths” value ([1]; Table 1, total doses as in E1) was 0 and the “Drug Deaths” value (Human MX-1 Mammary; 132 mg/kg total) was 0. The “T/C Value” (Human MX-1 Mammary; 132 mg/kg total) was 27%, the “Wt. Loss at Nadir” value (Human MX-1 Mammary; 132 mg/kg total) was -0.8 g/mouse and the “Drug Deaths” value (Human MX-1 Mammary; 297 mg/kg total) was 0. For the same compound, the “T/C Value” (Human MX-1 Mammary; 297 mg/kg total) was 39%, the “Wt. Loss at Nadir” value (Human MX-1 Mammary; 297 mg/kg total) was -2.4 g/mouse and the “Drug Deaths” value (colon adenocarcinoma #38; [25]) was 0. For the same compound, the “T/C Value” (colon adenocarcinoma #38; [25]) was 0%, the “Wt. Loss at Nadir” value (colon adenocarcinoma #38; [25]) was 0 g/mouse and the “Drug Deaths” value (colon adenocarcinoma #38; [26]) was 0. The “T/C Value” (colon adenocarcinoma #38; [26]) was 0%, the “Wt. Loss at Nadir” value (colon adenocarcinoma #38; [26]) was -0.8 g/mouse and the “Drug Deaths” value (colon adenocarcinoma #38; [27]) was 0. For the same compound, the “T/C Value” (colon adenocarcinoma #38; [27]) was 0% and the “Wt. Loss at Nadir” value (colon adenocarcinoma #38; [27]) was -3.2 g/mouse.
